Publication PMC9687610, “Adenosine-Mimicking Derivatives of 3-Aminopyrazine-2-Carboxamide: Towards Inhibitors of Prolyl-tRNA Synthetase with Antimycobacterial Activity” (Biomolecules, 2022)
Values after ≈ are worked out from the molar mass of the structure shown. Where two headings read alike, the source gives them in different places.

Tests used:
[1] = tested on: Mycobacterium tuberculosis H37Ra ITM-M006710 (ATCC 9431); assay: Microplate Alamar Blue Assay (MABA), Mtb H37Ra; format: cell-based; settings: Mycobacterium tuberculosis, 120 h, pH 6.6, MABA, Middlebrook 7H9 broth pH 6.6, resazurin after 120 h; read-out: Mtb H37Ra MIC
[2] = tested on: Mycobacterium smegmatis DSM 43465 (ATCC 607); assay: Microplate Alamar Blue Assay (MABA), M. smegmatis; format: cell-based; settings: for MIC: Mycolicibacterium smegmatis, read-out: M. smegmatis MIC
[3] = tested on: M. aurum DSM 43999 (ATCC 23366); assay: Microplate Alamar Blue Assay (MABA), M. aurum; format: cell-based; settings: Mycolicibacterium aurum, read-out: M. aurum MIC
[4] = tested on: Mycobacterium tuberculosis H37Rv CNCTC My 331/88 (ATCC 27294); assay: MABA microdilution, Mtb H37Rv; format: cell-based; settings: for MIC: Mycobacterium tuberculosis, read-out: Mtb H37Rv MIC; for activity on Mtb H37Rv and both MDR strains (in words): virulent strain Mtb H37Rv and MDR isolates IZAK, MATI
[5] = tested on: Staphylococcus aureus subsp. aureus CCM 4223 (ATCC 29213); assay: Antibacterial microdilution broth (EUCAST), SA; format: cell-based; settings: Staphylococcus aureus; read after 24 h; read-out: SA MIC
[6] = tested on: Staphylococcus aureus subsp. aureus methicillin-resistant (MRSA) CCM 4750 (ATCC 43300); assay: Antibacterial microdilution broth (EUCAST), MRSA; format: cell-based; settings: Staphylococcus aureus; read after 24 h; read-out: MRSA MIC
[7] = tested on: Staphylococcus epidermidis CCM 4418 (ATCC 12228); assay: Antibacterial microdilution broth (EUCAST), SE; format: cell-based; settings: read after 24 h, read-out: SE MIC
[8] = tested on: Enterococcus faecalis CCM 4224 (ATCC 29212); assay: Antibacterial microdilution broth (EUCAST), EF; format: cell-based; settings: Enterococcus faecalis
[9] = tested on: Escherichia coli CCM 3954 (ATCC 25922); assay: Antibacterial microdilution broth (EUCAST), EC; format: cell-based; settings: Escherichia coli; read after 24 h; read-out: EC MIC
[10] = tested on: Acinetobacter baumannii DSM 30007 (ATCC 19606); assay: Antibacterial microdilution broth (EUCAST), ACI; format: cell-based; settings: Acinetobacter baumannii; read after 24 h; read-out: ACI MIC
[11] = tested on: Pseudomonas aeruginosa CCM 3955 (ATCC 27853); assay: Antibacterial microdilution broth (EUCAST), PA; format: cell-based; settings: Pseudomonas aeruginosa; read after 24 h; read-out: PA MIC
[12] = tested on: Candida albicans CCM 8320 (ATCC 24433); assay: Antifungal microdilution broth (EUCAST), CA; format: cell-based; settings: Candida albicans; read after 24 h; read-out: CA MIC
[13] = tested on: Candida krusei CCM 8271 (ATCC 6258); assay: Antifungal microdilution broth (EUCAST), CK; format: cell-based; settings: Pichia kudriavzevii; read after 24 h; read-out: CK MIC
[14] = tested on: Candida parapsilosis CCM 8260 (ATCC 22019); assay: Antifungal microdilution broth (EUCAST), CP; format: cell-based; settings: Lodderomyces parapsilosis; read after 24 h; read-out: CP MIC
[15] = tested on: Candida tropicalis CCM 8264 (ATCC 750); assay: Antifungal microdilution broth (EUCAST), CT; format: cell-based; settings: Candida tropicalis; read after 24 h; read-out: CT MIC
[16] = tested on: Aspergillus fumigatus ATCC 204305; assay: Antifungal microdilution broth (EUCAST), AF; format: cell-based; settings: Aspergillus fumigatus, ATCC204305; read after 24 h; read-out: AF MIC
[17] = tested on: Aspergillus flavus CCM 8363; assay: Antifungal microdilution broth (EUCAST), AFla; format: cell-based; settings: Aspergillus flavus, CCM8363; read after 24 h; read-out: AFla MIC
[18] = tested on: Lichtheimia corymbifera CCM 8077; assay: Antifungal microdilution broth (EUCAST), LC; format: cell-based; settings: Lichtheimia corymbifera, CCM8077; read after 24 h; read-out: LC MIC
[19] = tested on: Trichophyton interdigitale CCM 8377 (ATCC 9533); assay: Antifungal microdilution broth (EUCAST), TI; format: cell-based; settings: Trichophyton interdigitale, 72 h, read-out: TI MIC
[20] = tested on: HepG2 human hepatocellular carcinoma cells; assay: In vitro HepG2 cytotoxicity (CellTiter 96); settings: for IC50: Homo sapiens, HepG2, 24 h, read-out: HepG2 IC50, 24 h incubation, * limit = highest evaluated concentration (precipitation in medium), ** over the 1000 µM limit; for solubility in the testing medium (in words): HepG2 cell culture medium
[21] = tested on: Klebsiella pneumoniae CCM 4415 (ATCC 10031); assay: Antibacterial microdilution broth (EUCAST), KP; settings: read after 24 h
[22] = read after 24 h, read-out: EF MIC

## Cc1ccc(C(=O)Nc2nccnc2C(N)=O)cc1 [Compound 4]
[1]
  MIC: 7.81 µg/mL (≈ 30.5 µM)
[2]; MABA, resazurin after 48 h
  MIC: ≥ 250 µg/mL
[3]; MABA, resazurin after 72 h
  MIC: ≥ 250 µg/mL
[4]
  MIC: 6.25 µg/mL (≈ 24.4 µM)
  activity on Mtb H37Rv and both MDR strains (in words): significant activity
[5]
  MIC: > 500 µM
[6]
  MIC: > 500 µM
[7]
  MIC: > 500 µM
[8]; [22]
  MIC: > 500 µM
[9]
  MIC: > 500 µM
[10]
  MIC: > 500 µM
[11]
  MIC: > 500 µM
[12]
  MIC: > 500 µM
[13]
  MIC: > 500 µM
[14]
  MIC: > 500 µM
[15]
  MIC: > 500 µM
[16]
  MIC: > 500 µM
[17]
  MIC: > 500 µM
[18]
  MIC: > 500 µM
[19]
  MIC: > 500 µM
[20]
  IC50: > 100 µM
[21]
  KP MIC: > 500 µM

## NC(=O)c1nccnc1NC(=O)c1ccc(Br)cc1 [Compound 18]
[1]
  MIC: 1.95 µg/mL (≈ 6.07 µM)
[2]; MABA, resazurin after 48 h
  MIC: 125 µg/mL (≈ 389 µM)
[3]; MABA, resazurin after 72 h
  MIC: ≥ 250 µg/mL
[4]
  MIC: 6.25 µg/mL (≈ 19.5 µM)
[5]
  MIC: > 500 µM
[6]
  MIC: > 500 µM
[7]
  MIC: > 500 µM
[8]; [22]
  MIC: > 500 µM
[9]
  MIC: > 500 µM
[10]
  MIC: > 500 µM
[11]
  MIC: > 500 µM
[12]
  MIC: > 125 µM
[13]
  MIC: > 125 µM
[14]
  MIC: > 125 µM
[15]
  MIC: > 125 µM
[16]
  MIC: > 125 µM
[17]
  MIC: > 125 µM
[18]
  MIC: > 125 µM
[19]
  MIC: > 125 µM
[20]
  solubility in the testing medium (in words): low solubility
  IC50: > 25 µM
[21]
  KP MIC: > 500 µM

## NC(=O)c1nccnc1NC(=O)c1ccc(Cl)cc1 [Compound 15]
[1]
  MIC: 3.91 µg/mL (≈ 14.1 µM)
[2]
  activity against M. smegmatis (in words): high activity
[2]; 48 h
  MIC: 3.91 µg/mL (≈ 14.1 µM)
[3]; MABA, resazurin after 72 h
  MIC: ≥ 250 µg/mL
[4]
  MIC: 6.25 µg/mL (≈ 22.6 µM)
  activity on Mtb H37Rv and both MDR strains (in words): significant activity
[5]
  MIC: > 500 µM
[6]
  MIC: > 500 µM
[7]
  MIC: > 500 µM
[8]; [22]
  MIC: > 500 µM
[9]
  MIC: > 500 µM
[10]
  MIC: > 500 µM
[11]
  MIC: > 500 µM
[12]
  MIC: > 125 µM
[13]
  MIC: > 125 µM
[14]
  MIC: > 125 µM
[15]
  MIC: > 125 µM
[16]
  MIC: > 125 µM
[17]
  MIC: > 125 µM
[18]
  MIC: > 125 µM
[19]
  MIC: > 125 µM
[20]
  IC50: > 100 µM
[21]
  KP MIC: > 500 µM

## NC(=O)c1nccnc1NC(=O)c1ccccc1F [Compound 10]
[1]
  MIC: 250 µg/mL (≈ 961 µM)
[2]; MABA, resazurin after 48 h
  MIC: ≥ 500 µg/mL
[3]; MABA, resazurin after 72 h
  MIC: ≥ 500 µg/mL
[5]
  MIC: > 500 µM
[6]
  MIC: > 500 µM
[7]
  MIC: > 500 µM
[8]; [22]
  MIC: > 500 µM
[9]
  MIC: > 500 µM
[10]
  MIC: > 500 µM
[11]
  MIC: > 500 µM
[12]
  MIC: > 500 µM
[13]
  MIC: > 500 µM
[14]
  MIC: > 500 µM
[15]
  MIC: > 500 µM
[16]
  MIC: > 500 µM
[17]
  MIC: > 500 µM
[18]
  MIC: > 500 µM
[19]
  MIC: > 500 µM
other
  melting point: 211 to 213 °C
[20]
  IC50: 556 µM
[21]
  KP MIC: > 500 µM

## NC(=O)c1nccnc1NC(=O)c1cccc(Br)c1 [Compound 17]
[1]
  MIC: ≥ 125 µg/mL
[2]; 48 h
  MIC: ≥ 125 µg/mL
[3]; 72 h
  MIC: ≥ 125 µg/mL
[5]
  MIC: > 125 µM
[6]
  MIC: > 125 µM
[7]
  MIC: > 125 µM
[8]; [22]
  MIC: > 125 µM
[9]
  MIC: > 125 µM
[10]
  MIC: > 125 µM
[11]
  MIC: > 125 µM
[12]
  MIC: > 125 µM
[13]
  MIC: > 125 µM
[14]
  MIC: > 125 µM
[15]
  MIC: > 125 µM
[16]
  MIC: > 125 µM
[17]
  MIC: > 125 µM
[18]
  MIC: > 125 µM
[19]
  MIC: > 125 µM
other
  melting point: 255 to 256 °C
[20]
  solubility in the testing medium (in words): low solubility
  IC50: > 5 µM
[21]
  KP MIC: > 125 µM

## Cc1ccccc1C(=O)Nc1nccnc1C(N)=O [Compound 2]
[1]
  MIC: ≥ 500 µg/mL
[2]; MABA, resazurin after 48 h
  MIC: ≥ 500 µg/mL
[3]; MABA, resazurin after 72 h
  MIC: ≥ 500 µg/mL
[5]
  MIC: > 500 µM
[6]
  MIC: > 500 µM
[7]
  MIC: > 500 µM
[8]; [22]
  MIC: > 500 µM
[9]
  MIC: > 500 µM
[10]
  MIC: > 500 µM
[11]
  MIC: > 500 µM
[12]
  MIC: > 125 µM
[13]
  MIC: > 125 µM
[14]
  MIC: > 125 µM
[15]
  MIC: > 125 µM
[16]
  MIC: > 125 µM
[17]
  MIC: > 125 µM
[18]
  MIC: > 125 µM
[19]
  MIC: > 125 µM
other
  melting point: 234.4 to 235.9 °C
[20]
  IC50: 422 µM
[21]
  KP MIC: > 500 µM

## NC(=O)c1nccnc1NC(=O)c1cccc(F)c1 [Compound 11]
[1]
  MIC: ≥ 125 µg/mL
[2]; 48 h
  MIC: ≥ 125 µg/mL
[3]; 72 h
  MIC: ≥ 125 µg/mL
[5]
  MIC: > 250 µM
[6]
  MIC: > 250 µM
[7]
  MIC: > 250 µM
[8]; [22]
  MIC: > 250 µM
[9]
  MIC: > 250 µM
[10]
  MIC: > 250 µM
[11]
  MIC: > 250 µM
[12]
  MIC: > 250 µM
[13]
  MIC: > 250 µM
[14]
  MIC: > 250 µM
[15]
  MIC: > 250 µM
[16]
  MIC: > 250 µM
[17]
  MIC: > 250 µM
[18]
  MIC: > 250 µM
[19]
  MIC: > 250 µM
other
  melting point: 234.1 to 236 °C
[20]
  solubility in the testing medium (in words): low solubility
  IC50: > 50 µM
[21]
  KP MIC: > 250 µM

## O=C(O)c1cn(C2CC2)c2cc(N3CCNCC3)c(F)cc2c1=O [CIP, ciprofloxacin, reference compound]
[1]
  MIC: 0.25 µg/mL (≈ 0.754 µM)
[2]; MABA, resazurin after 48 h
  MIC: 0.063 µg/mL (≈ 0.19 µM)
[3]; MABA, resazurin after 72 h
  MIC: 0.016 µg/mL (≈ 0.0483 µM)
[4]
  MIC: 0.2 µg/mL (≈ 0.604 µM)
[8]; internal quality control, no visible growth, 24 h, read-out: MIC, visual detection
  MIC: 1.02 µg/mL
